Measured values as given in ChEMBL document CHEMBL1135594 (J Med Chem, 2002).
Activity calls are given as the source filed them. The calls are words filed in the database; no cut-off is given here.

Columns and labels:
Plasmodium falciparum [1] = experiment: Displacement of chloroquine from Fe(3+) FPIX-loaded membrane; type: functional
[2] = target: T1, Histidine-rich protein PFHRP-II (Plasmodium falciparum, UniProt P05227); experiment: Inhibition of beta-hematin formation; type: functional
T1 sequence (P05227 whole entry): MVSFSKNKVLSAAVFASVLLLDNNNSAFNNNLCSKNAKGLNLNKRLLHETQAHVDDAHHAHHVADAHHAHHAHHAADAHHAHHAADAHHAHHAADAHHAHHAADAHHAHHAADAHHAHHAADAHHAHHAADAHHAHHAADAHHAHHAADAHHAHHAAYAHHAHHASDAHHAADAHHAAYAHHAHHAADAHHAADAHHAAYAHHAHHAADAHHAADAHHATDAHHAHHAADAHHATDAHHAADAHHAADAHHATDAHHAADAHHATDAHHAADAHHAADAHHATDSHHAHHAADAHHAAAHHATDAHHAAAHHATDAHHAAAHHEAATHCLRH

[3] = Resistance factor as the ratio of IC50 against Plasmodium falciparum K1 to that of Plasmodium falciparum HB3.; type: functional
Plasmodium falciparum [4] = experiment: microbe, parasite or virus in culture
Plasmodium falciparum [5] = experiment: microbe, parasite or virus in culture; remark: listed apart in the source
Plasmodium falciparum [6] = experiment: microbe, parasite or virus in culture; remark: listed apart in the source
Plasmodium falciparum [7] = experiment: microbe, parasite or virus in culture; remark: listed apart in the source
Plasmodium falciparum [8] = experiment: Inhibition of chloroquine uptake from intact parasites; Not active; type: functional, organism-based

## CC(C)(C)NCCNc1ccnc2cc(C(F)(F)F)ccc12
Plasmodium falciparum [1]
  IC50: 4960 nM
[2]
  IC50: 71000 nM
[3]
  Resistance factor: 1.78
Plasmodium falciparum [4]
  IC50: 9.8 nM
Plasmodium falciparum [5]
  IC50: 5.5 nM
Plasmodium falciparum [6]
  IC50: 2090 nM

## FC(F)(F)c1ccc2c(NCCN3CCCCC3)ccnc2c1
[2]
  IC50: 65000 nM
[3]
  Resistance factor: 2.09
Plasmodium falciparum [4]
  IC50: 22.2 nM
Plasmodium falciparum [7]
  IC50: 8390 nM
Plasmodium falciparum [5]
  IC50: 10.6 nM
Plasmodium falciparum [6]
  IC50: 2030 nM

## Clc1ccc2c(NCCN3CCOCC3)ccnc2c1
[2]
  IC50: 102000 nM
Plasmodium falciparum [8]
  NA: inactive
Plasmodium falciparum [4]
  IC50: 240 nM
Plasmodium falciparum [7]
  IC50: 24900 nM
Plasmodium falciparum [5]
  IC50: 150 nM

## Clc1ccc2c(NCCN3CCCC3)ccnc2c1
[2]
  IC50: 78000 nM
Plasmodium falciparum [4]
  IC50: 13.2 nM
Plasmodium falciparum [7]
  IC50: 5940 nM
Plasmodium falciparum [5]
  IC50: 6.8 nM
Plasmodium falciparum [6]
  IC50: 1620 nM

## Clc1ccc2c(NCCN3CCCCC3)ccnc2c1
[2]
  IC50: 86000 nM
Plasmodium falciparum [4]
  IC50: 13 nM
Plasmodium falciparum [7]
  IC50: 7650 nM
Plasmodium falciparum [5]
  IC50: 6.8 nM
Plasmodium falciparum [6]
  IC50: 910 nM

## CC(C)(C)NCCNc1ccnc2cc(Cl)ccc12
[2]
  IC50: 70000 nM
Plasmodium falciparum [4]
  IC50: 15.3 nM
Plasmodium falciparum [7]
  IC50: 3940 nM
Plasmodium falciparum [5]
  IC50: 4.3 nM
Plasmodium falciparum [6]
  IC50: 710 nM

## CCN(CC)CCCC(C)Nc1ccnc2cc(Cl)ccc12 (stereo not drawn)
[3]
  Resistance factor: 10
